Experimental data: PubChem BioAssay (NCI)
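Dose response: 5 concentrations. Exposure: 48 h. Format: 96-well plates. Endpoint: linear interpolation; highest concentration if not reached. GI50: concentration for 50% inhibition of growth. TGI is the concentration that stops growth completely.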

Tests used:
Test in all cases: DTP human tumour cell line panel, 48 h
[1] = tested on: SF-295 CNS
[2] = tested on: SN12C renal
[3] = tested on: MDA-MB-231 breast
[4] = tested on: UO-31 renal
[5] = tested on: UACC-62 melanoma
[6] = tested on: CCRF-CEM leukemia
[7] = tested on: U251 CNS
[8] = tested on: RXF 393 renal
[9] = tested on: MALME-3M melanoma
[10] = tested on: SK-MEL-2 melanoma
[11] = tested on: A549 NSCLC
[12] = tested on: SF-539 CNS
[13] = tested on: K-562 leukemia
[14] = tested on: HOP-62 NSCLC
[15] = tested on: COLO 205 colon
[16] = tested on: BT-549 breast
[17] = tested on: SK-OV-3 ovarian
[18] = tested on: OVCAR-3 ovarian
[19] = tested on: NCI-H226 lung
[20] = tested on: HCC-2998 colon
[21] = tested on: A498 renal
[22] = tested on: HOP-92 NSCLC
[23] = tested on: DU-145 prostate
[24] = tested on: SR leukemia
[25] = tested on: NCI/ADR-RES ovarian
[26] = tested on: SNB-75 CNS
[27] = tested on: PC-3 prostate
[28] = tested on: ACHN renal
[29] = tested on: HS 578T breast
[30] = tested on: HCT-116 colon
[31] = tested on: T-47D breast
[32] = tested on: HL-60(TB) leukemia
[33] = tested on: SK-MEL-28 melanoma
[34] = tested on: NCI-H522 lung
[35] = tested on: CAKI-1 renal
[36] = tested on: SNB-19 CNS
[37] = tested on: EKVX NSCLC
[38] = tested on: MCF7 breast
[39] = tested on: HT29 colon
[40] = tested on: NCI-H460 lung
[41] = tested on: UACC-257 melanoma
[42] = tested on: LOX IMVI melanoma
[43] = tested on: OVCAR-8 ovarian
[44] = tested on: HCT-15 colon
[45] = tested on: SF-268 CNS
[46] = tested on: TK-10 renal
[47] = tested on: RPMI-8226 leukemia
[48] = tested on: KM12 colon
[49] = tested on: MOLT-4 leukemia
[50] = tested on: SW-620 colon
[51] = tested on: 786-0 renal
[52] = tested on: MDA-MB-435
[53] = tested on: OVCAR-5 ovarian
[54] = tested on: IGROV1 ovarian
[55] = tested on: OVCAR-4 ovarian
[56] = tested on: M14 melanoma
[57] = tested on: SK-MEL-5 melanoma

CCOc1ccc(-c2nnc(C3CC(NC(=O)c4cccc5nccnc45)C3)n2-c2ccccc2F)nc1 (centres undefined)
GI50 [1]: 18.7 µM
TGI [1]: 39.7 µM
GI50 [2]: 14.7 µM
TGI [2]: 50.5 µM
GI50 [3]: 17.7 µM
TGI [3]: 51.8 µM
TGI [4]: > 100 µM
GI50 [5]: 17.5 µM
TGI [5]: 38.4 µM
GI50 [6]: 21.3 µM
TGI [6]: 59.7 µM
GI50 [7]: 10.7 µM
TGI [7]: 29.8 µM
GI50 [8]: 6.82 µM
TGI [8]: 21.5 µM
GI50 [9]: 17.4 µM
TGI [9]: 47.2 µM
GI50 [10]: 14.8 µM
TGI [10]: 36.4 µM
GI50 [11]: 24.2 µM
TGI [11]: > 100 µM
GI50 [12]: 14.6 µM
TGI [12]: 29.2 µM
GI50 [13]: 24.1 µM
TGI [13]: > 100 µM
GI50 [14]: 12.7 µM
TGI [14]: 36.9 µM
GI50 [15]: 19.1 µM
TGI [15]: 50.9 µM
GI50 [16]: 10.9 µM
TGI [16]: 23.7 µM
GI50 [17]: 13.6 µM
TGI [17]: 38.2 µM
GI50 [18]: 13.3 µM
TGI [18]: 36.1 µM
GI50 [19]: 13.1 µM
TGI [19]: 41.5 µM
GI50 [20]: 18.3 µM
TGI [20]: 35.3 µM
GI50 [21]: 8.31 µM
TGI [21]: 58.6 µM
GI50 [22]: 4020 nM
TGI [22]: 40 µM
GI50 [23]: 25.9 µM
TGI [23]: > 100 µM
GI50 [24]: 16.5 µM
TGI [24]: 52.9 µM
GI50 [25]: 19.2 µM
TGI [25]: 92.9 µM
GI50 [26]: 13.2 µM
TGI [26]: 46.4 µM
GI50 [27]: 21.1 µM
TGI [27]: 86.9 µM
GI50 [28]: 15.1 µM
TGI [28]: 29.8 µM
GI50 [29]: 16.3 µM
TGI [29]: 94.8 µM
GI50 [30]: 16 µM
TGI [30]: 36.2 µM
GI50 [31]: 7.24 µM
TGI [31]: 39.6 µM
GI50 [32]: 20.9 µM
TGI [32]: 48.3 µM
GI50 [33]: 19.3 µM
TGI [33]: 48.1 µM
GI50 [34]: 14.9 µM
TGI [34]: 34.2 µM
GI50 [35]: 14.3 µM
TGI [35]: > 100 µM
GI50 [36]: 24.5 µM
TGI [36]: > 100 µM
GI50 [37]: 27 µM
TGI [37]: > 100 µM
GI50 [38]: 21.4 µM
TGI [38]: 90.7 µM
GI50 [39]: 15.1 µM
TGI [39]: 32.4 µM
GI50 [40]: 26.9 µM
TGI [40]: > 100 µM
GI50 [41]: 19.6 µM
TGI [41]: 51 µM
GI50 [42]: 17.5 µM
TGI [42]: 36.7 µM
GI50 [43]: 22.8 µM
TGI [43]: > 100 µM
GI50 [44]: 23.2 µM
TGI [44]: 89 µM
GI50 [45]: 20.4 µM
TGI [45]: > 100 µM
TGI [46]: 31.1 µM
GI50 [47]: 12.9 µM
TGI [47]: 35.3 µM
GI50 [48]: 23.6 µM
TGI [48]: 60.1 µM
GI50 [49]: 14.8 µM
TGI [49]: 39.9 µM
GI50 [50]: 31.9 µM
TGI [50]: > 100 µM
GI50 [51]: 17.6 µM
TGI [51]: > 100 µM
GI50 [52]: 21.2 µM
TGI [52]: 51.5 µM
GI50 [53]: 18.2 µM
TGI [53]: 52.8 µM
GI50 [54]: 17 µM
TGI [54]: > 100 µM
GI50 [55]: 12.2 µM
TGI [55]: > 100 µM
GI50 [56]: 16.2 µM
TGI [56]: 32.9 µM
GI50 [57]: 14.2 µM
TGI [57]: 27.4 µM

C/C(=N\NC(=S)Nc1ccc(Br)cc1)c1cc2ccccc2oc1=O
GI50 [1]: 2.49 µM
TGI [1]: 7.18 µM
GI50 [2]: 1.59 µM
TGI [2]: 15.2 µM
GI50 [3]: 0.956 µM
TGI [3]: 25.2 µM
GI50 [4]: 587 nM
TGI [4]: 10.4 µM
GI50 [5]: 0.476 µM
TGI [5]: 3.71 µM
GI50 [6]: 0.464 µM
TGI [6]: 9.51 µM
GI50 [7]: 0.64 µM
TGI [7]: 12 µM
GI50 [8]: 1.45 µM
TGI [8]: 4 µM
GI50 [9]: 1.12 µM
TGI [9]: 7 µM
GI50 [10]: 0.789 µM
TGI [10]: 8.34 µM
GI50 [11]: 2.39 µM
TGI [11]: 13.4 µM
GI50 [12]: 1.33 µM
TGI [12]: 10.5 µM
GI50 [13]: 0.42 µM
TGI [13]: 21.1 µM
GI50 [14]: 0.841 µM
TGI [14]: 12.6 µM
GI50 [15]: 3.34 µM
TGI [15]: 12.1 µM
GI50 [16]: 1.26 µM
TGI [16]: 6.36 µM
GI50 [17]: 3.12 µM
TGI [17]: 11.6 µM
GI50 [18]: 0.427 µM
TGI [18]: 13 µM
GI50 [19]: 1.28 µM
TGI [19]: 5.24 µM
GI50 [20]: 1.69 µM
TGI [20]: 5.52 µM
GI50 [21]: 14.4 µM
TGI [21]: 31.4 µM
GI50 [22]: 1210 nM
TGI [22]: 18 µM
GI50 [23]: 1.79 µM
TGI [23]: 25.8 µM
GI50 [24]: 0.314 µM
TGI [24]: 2.33 µM
GI50 [25]: 0.523 µM
TGI [25]: 12.8 µM
GI50 [26]: 0.615 µM
TGI [26]: 4.27 µM
GI50 [27]: 0.833 µM
TGI [27]: 14 µM
GI50 [28]: 0.76 µM
TGI [28]: 17.1 µM
GI50 [30]: 0.579 µM
TGI [30]: 12.5 µM
GI50 [31]: 0.952 µM
TGI [31]: 11.9 µM
GI50 [32]: 0.44 µM
TGI [32]: 3.08 µM
GI50 [33]: 0.872 µM
TGI [33]: 13.1 µM
GI50 [34]: 0.582 µM
TGI [34]: 4.68 µM
GI50 [35]: 0.561 µM
TGI [35]: 9.94 µM
GI50 [36]: 1.41 µM
TGI [36]: 24.6 µM
GI50 [37]: 2.85 µM
TGI [37]: 30.8 µM
GI50 [38]: 0.87 µM
TGI [38]: 10.9 µM
GI50 [39]: 3.72 µM
TGI [39]: 14.4 µM
GI50 [40]: 0.462 µM
TGI [40]: 4.58 µM
GI50 [41]: 2.24 µM
TGI [41]: 8.56 µM
GI50 [42]: 0.53 µM
TGI [42]: 5.34 µM
GI50 [43]: 1.12 µM
TGI [43]: 11.1 µM
GI50 [44]: 0.404 µM
TGI [44]: 13.5 µM
GI50 [45]: 0.883 µM
TGI [45]: 17.2 µM
GI50 [46]: 4.65 µM
TGI [46]: 28.3 µM
GI50 [47]: 1.21 µM
TGI [47]: 11.2 µM
GI50 [48]: 0.6 µM
TGI [48]: 8.23 µM
GI50 [49]: 0.46 µM
TGI [49]: 12 µM
GI50 [50]: 0.892 µM
TGI [50]: 15.7 µM
GI50 [51]: 2.46 µM
TGI [51]: 13.5 µM
GI50 [52]: 0.353 µM
TGI [52]: 11.9 µM
GI50 [53]: 2.46 µM
TGI [53]: 14.2 µM
GI50 [54]: 0.84 µM
TGI [54]: 15.3 µM
GI50 [55]: 2.24 µM
TGI [55]: 49.7 µM
GI50 [56]: 0.604 µM
TGI [56]: 2.22 µM
GI50 [57]: 1.19 µM
TGI [57]: 3.5 µM
